Results from patent US20150315188A1, “COMPOUNDS AND METHODS FOR TREATMENT OF HYPERTENSION” (MEDIVATION TECHNOLOGIES, INC., priority 2012, published 2015).

Assays:
Design in all cases: purchased Milipore (Millipore)
[1] = target: T1, Human adrenergic α2B receptor (Homo sapiens, UniProt P18089); assay: Radioligand binding, adrenergic α2B (Protocol Group B); conditions: Protocol Group B; for inhibition at 0.01 µM / Percentage inhibition of ligand binding, Adrenergic α2B (10 nM): 10 nM compound; for inhibition at 0.01 µM: read-out: Percentage inhibition of ligand binding, Adrenergic α2B (10 nM); for inhibition at 0.03 µM / Percentage inhibition of ligand binding, Adrenergic α2B (30 nM): 30 nM compound; for inhibition at 0.03 µM: read-out: Percentage inhibition of ligand binding, Adrenergic α2B (30 nM); for inhibition at 0.1 µM / Percentage inhibition of ligand binding, Adrenergic α2B (0.1 μM): 0.1 μM compound; for inhibition at 0.1 µM: read-out: Percentage inhibition of ligand binding, Adrenergic α2B (0.1 μM); for Percentage inhibition of ligand binding, Adrenergic α2B (10 nM): 0.01 µM; for Percentage inhibition of ligand binding, Adrenergic α2B (30 nM): 0.03 µM
T1 sequence (P18089 1-450): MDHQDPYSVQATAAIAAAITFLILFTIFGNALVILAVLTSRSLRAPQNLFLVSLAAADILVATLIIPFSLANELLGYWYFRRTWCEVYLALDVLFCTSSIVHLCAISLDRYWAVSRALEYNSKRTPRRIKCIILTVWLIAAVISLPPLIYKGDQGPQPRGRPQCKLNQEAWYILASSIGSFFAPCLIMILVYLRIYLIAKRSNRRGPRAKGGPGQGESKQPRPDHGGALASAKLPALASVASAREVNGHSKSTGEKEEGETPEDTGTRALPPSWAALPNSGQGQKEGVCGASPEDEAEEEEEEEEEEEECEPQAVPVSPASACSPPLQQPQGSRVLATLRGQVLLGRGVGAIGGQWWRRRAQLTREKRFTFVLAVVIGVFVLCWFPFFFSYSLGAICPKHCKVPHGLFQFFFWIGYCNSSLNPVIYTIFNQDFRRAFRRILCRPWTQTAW
Outline: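 Compounds at various concentrations in 1% DMSO were tested on recombinant membranes in Tris-HCl pH 7.4 buffer containing MgCl2, CaCl2 and 0.2% BSA.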

[2] = target: T2, Human adrenergic α2A receptor (Homo sapiens, UniProt P08913); assay: Radioligand binding, adrenergic α2A (Protocol Group B); conditions: Protocol Group B; for Percentage inhibition of ligand binding, Adrenergic α2A (0.1 μM) / inhibition at 0.1 µM: 0.1 μM compound; for inhibition at 0.3 µM / Percentage inhibition of ligand binding, Adrenergic α2A (0.3 μM): 0.3 μM compound; for inhibition at 0.3 µM: read-out: Percentage inhibition of ligand binding, Adrenergic α2A (0.3 μM); for inhibition at 0.1 µM: read-out: Percentage inhibition of ligand binding, Adrenergic α2A (0.1 μM)
T2 sequence (P08913 1-465): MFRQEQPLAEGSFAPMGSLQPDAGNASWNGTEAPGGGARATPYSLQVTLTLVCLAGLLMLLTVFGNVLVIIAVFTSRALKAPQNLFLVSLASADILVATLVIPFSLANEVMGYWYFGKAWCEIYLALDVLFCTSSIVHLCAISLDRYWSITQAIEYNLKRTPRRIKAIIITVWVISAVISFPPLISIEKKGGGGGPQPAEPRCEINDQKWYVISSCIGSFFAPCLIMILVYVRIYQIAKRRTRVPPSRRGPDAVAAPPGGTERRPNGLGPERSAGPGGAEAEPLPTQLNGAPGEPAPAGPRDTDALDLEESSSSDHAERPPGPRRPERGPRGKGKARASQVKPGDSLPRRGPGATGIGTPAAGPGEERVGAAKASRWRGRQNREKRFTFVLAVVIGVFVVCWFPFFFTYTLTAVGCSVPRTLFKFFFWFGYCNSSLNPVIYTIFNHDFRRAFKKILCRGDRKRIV
Outline: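 Compounds (1% DMSO vehicle, various concentrations) competed against 2 nM [^3H]MK-912 on recombinant receptor membranes for 60 min at 25° C, Tris-HCl pH 7.4 buffer with Mg2+, Ca2+, BSA. Bound radioligand filtered and counted; 10 μM rauwolscine set nonspecific binding. Values: percent inhibition of specific binding or estimated Ki.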

[3] = target: T3, Human adrenergic α1B receptor (Homo sapiens, UniProt P35368); assay: Radioligand binding, adrenergic α1B (Protocol Group B); conditions: Protocol Group B; for Percentage inhibition of ligand binding, Adrenergic α1B (0.1 μM) / inhibition at 0.1 µM: 0.1 μM compound; for inhibition at 0.3 µM / Percentage inhibition of ligand binding, Adrenergic α1B (0.3 μM): 0.3 μM compound; for inhibition at 0.3 µM: read-out: Percentage inhibition of ligand binding, Adrenergic α1B (0.3 μM); for inhibition at 0.1 µM: read-out: Percentage inhibition of ligand binding, Adrenergic α1B (0.1 μM)
T3 sequence (P35368 1-520): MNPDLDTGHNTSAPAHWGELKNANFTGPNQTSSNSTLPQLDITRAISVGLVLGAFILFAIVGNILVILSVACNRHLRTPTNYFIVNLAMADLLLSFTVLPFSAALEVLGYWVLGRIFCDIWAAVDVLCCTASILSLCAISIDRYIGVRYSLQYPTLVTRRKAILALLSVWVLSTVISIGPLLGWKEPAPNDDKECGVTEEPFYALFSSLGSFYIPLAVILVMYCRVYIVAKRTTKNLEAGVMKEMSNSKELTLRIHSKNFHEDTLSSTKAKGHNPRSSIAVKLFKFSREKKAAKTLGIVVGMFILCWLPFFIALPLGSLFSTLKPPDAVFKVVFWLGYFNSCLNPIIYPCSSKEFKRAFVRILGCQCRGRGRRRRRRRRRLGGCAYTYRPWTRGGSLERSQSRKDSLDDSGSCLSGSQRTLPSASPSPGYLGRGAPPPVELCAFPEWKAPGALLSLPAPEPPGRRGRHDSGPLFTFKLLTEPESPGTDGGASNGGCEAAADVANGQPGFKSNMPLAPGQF
Outline: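 Values are percent inhibition of specific [3H]prazosin (0.3 nM) binding or estimated Ki, from filtration counting. Human α1B recombinant membranes, Tris-HCl pH 7.4 buffer with MgCl2 and EDTA, 60 min at 25 °C, 1% DMSO vehicle; 10 μM prazosin defined nonspecific binding.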

inhibition at 0.01 µM [1] | inhibition at 0.03 µM [1] | inhibition at 0.1 µM [1] | Ki ([1]; estimated Ki, read-out: Ki α2B) | Percentage inhibition of ligand binding, Adrenergic α2A (0.1 μM) [2] | inhibition at 0.3 µM [2] | Percentage inhibition of ligand binding, Adrenergic α1B (0.1 μM) [3] | inhibition at 0.3 µM [3] | Percentage inhibition of ligand binding, Adrenergic α2B (10 nM) [1] | Percentage inhibition of ligand binding, Adrenergic α2B (30 nM) [1] | Percentage inhibition of ligand binding, Adrenergic α2B (0.1 μM) [1] | Percentage inhibition of ligand binding, Adrenergic α2A (0.3 μM) [2] | Percentage inhibition of ligand binding, Adrenergic α1B (0.3 μM) [3] | inhibition at 0.1 µM [3] | inhibition at 0.1 µM [2] | Compound
87% | 97% | 98% | 1.7 nM | 60% | 74% | 12% | 50% |  |  |  |  |  |  |  | CC(O)(Cn1c2c(c3cc(Cl)cc(F)c31)C1CCCN1CC2)c1cccnc1 (single isomer, unassigned) [53a]
 |  |  |  | 0% |  | −5% |  | 11% | 4% | 19% | −11% | 3% |  |  | Cc1ccc2c(c1)c1c(n2CC(O)c2ccccn2)CC2CCCN2C1 (single isomer, unassigned) [45c]
 |  |  |  | 13% |  | −8% |  | 45% | 69% | 86% | 34% | 4% |  |  | CC(O)(Cn1c2c(c3cc(F)ccc31)C1CCCN1CC2)c1cccnc1 (stereo not shown) [51b]
 |  |  |  | −12% |  | −4% |  | −7% | 0% | 14% | −11% | −4% |  |  | CC(O)(Cn1c2c(c3cc(F)ccc31)C1CCCN1CC2)c1cccnc1 (stereo not shown) [57a]
 |  |  |  | −2% |  | −3% |  | 4% | −11% | 7% | 10% | 5% |  |  | Cc1ccc2c(c1)c1c(n2CC(C)(O)c2cccnc2)CCN(C)C1CO (single isomer, unassigned) [16b]
 |  |  |  | −11% |  | −4% |  |  | 56% |  |  |  |  |  | CN1CCc2c(c3cc(CCO)ccc3n2CC(O)c2ccncc2)C1 (single isomer, unassigned) [140b]
 | 35% |  |  | 17% |  |  |  | 11% |  | 64% | 19% | 34% | 17% |  | Cc1ccc2c(c1)c1c(n2CC(C)(O)c2ccc(N(C)C)nc2)CCN(C)C1 (stereo not shown) [compound 39, 1-(2,8-dimethyl-3,4-dihydro-1H-pyrido[4,3-b]indol-5(2H)-yl)-2-(6-(dimethylamino)pyridin-3-yl)propan-2-ol]
31% | 66% | 80% |  |  | 49% |  | 46% |  |  |  |  |  | 15% | 20% | OCc1ccc2c(c1)c1c(n2CC(O)c2ccncc2)CCN2CCCC12 (stereo not shown) [compound 29]
15% | 43% | 66% |  |  | -3% |  | 8% |  |  |  |  |  | -5% | -8% | Cc1ccc2c(c1)c1c(n2CC(O)c2ccc(C(=O)N(C)C)nc2)CCN(C)C1 (stereo not shown) [compound 54, 5-(2-(2,8-dimethyl-3,4-dihydro-1H-pyrido[4,3-b]indol-5(2H)-yl)-1-hydroxyethyl)-N,N-dimethylpicolinamide]
 |  |  |  | 59% |  | 77% |  | 81% | 95% | 100% | 79% | 91% |  |  | Cc1cc(C)c2c(c1)c1c(n2CC(C)(O)c2ccncc2)CCN2CCCC12 (stereo not shown) [compound 19, 1-(8,10-dimethyl-2,3,5,6-tetrahydro-1H-indolizino[7,8-b]indol-7(11cH)-yl)-2-(pyridin-4-yl)propan-2-ol]
 |  |  |  | 16% |  | 2% |  | 12% | 32% | 62% | 26% | 21% |  |  | Cc1cc(F)c2c(c1)c1c(n2CC(C)(O)c2ccncc2)CC2CCCN2C1 (single isomer, unassigned) [62b]
 |  |  |  | −4% |  | 1% |  | 1% | 14% | 22% | 3% | 12% |  |  | Cc1ccc2c(c1)c1c(n2CC(C)(O)c2cccnc2)CC2CCCN2C1 (stereo not shown) [38d]
 |  |  |  | 7% |  | 29% |  |  | 40% |  |  |  |  |  | Cc1ccc2c(c1)c1c(n2CC(C)(O)c2ccc(F)cc2)CN2CCC1C2 (single isomer, unassigned) [134b]
19% | 44% | 74% |  |  | 19% |  | 3% |  |  |  |  |  | -6% | 5% | Cc1ccc2c(c1)c1c(n2CC(C)(O)c2cnccc2F)CCN(C)C1 (stereo not shown) [compound 40, 1-(2,8-dimethyl-3,4-dihydro-1H-pyrido[4,3-b]indol-5(2H)-yl)-2-(4-fluoropyridin-3-yl)propan-2-ol]
